From patent publication US9434684B2, “Oxime-substituted amide compound and pest control agent” (Nissan Chemical Industries, Ltd., priority 2012, dated 2016)

How the values were obtained:
[1] = test system: Meloidogyne incognita; test: Preventive effect on Meloidogyne incognita (garden balsam seedlings, root knot); assay type: in vivo; settings: 504 h, test solution B 100 ppm, 1 ml per seedling, 3 weeks, read-out: efficacy (damage degree, root knot, relative to non-treated plot)
Experimental: Compounds of the present invention were dissolved in dimethylsulfoxide to prepare 1% solutions. Then, distilled water was added to dilute the solutions to the predetermined concentration (100 ppm), and the obtained solutions were used in the following Test Examples 8 to 12. 1 ml per seedling of test solutions B of the compounds of the present invention were treated to the bases of garden balsam seedlings (about 2 weeks after budding) planted in a cell tray of which each cell was filled with 10 g of soil. 1 Hour after the application, 1 ml per cell of water containing Meloidogyne incognita 2 L larvae (100 2 L larvae/1 ml) was applied to the bases. The tray was placed in a greenhouse for 3 weeks, and the root knot level formed on the root was determined in accordance with the following damage index and the damage degree to calculate the efficacy (%) relative to the non-treated plot in accordance with the following formula. <Damage Index> 0: No knot observed. 1: Knot observed on a part of the root system. 2: Knot observed on the entire root system. 3: Large knot observed. 4: Large knot observed on the entire root system. [Damage degree]=[Σ(damage index×number of seedlings at each index)/(4×number of seedlings investigated)]×100 Efficacy(%)=[1−(damage degree in treated plot/damage degree in non-treated plot)]×100

Compound	melting point	pest or weed control at 100 µg/mL [1]
CO/N=C(\CNC(=O)c1ccccc1C(F)(F)F)c1ccc(Cl)cc1Cl [Compound No. 1-004, (Z)—N-[2-(2,4-dichlorophenyl)-2-(methoxyimino)ethyl]-2-(trifluoromethyl)benzamide]	146 to 148 °C	–
CCO/N=C(/CNC(=O)c1ccccc1C(F)(F)F)c1ncc(C(F)(F)F)cc1Cl [Compound No. 2-185, (Z)—N-[2-[3-chloro-5-(trifluoromethyl)pyridin-2-yl]-2-(ethoxyimino)ethyl]-2-(trifluoromethyl)benzamide]	60 to 62 °C	–
CC(ON=C(CNC(=O)c1ccccc1C(F)(F)F)c1ncc(Cl)cc1Cl)c1ccc(F)cc1 (centres unmarked) [Compound No. 2-173, N-[2-(3,5-dichloropyridin-2-yl)-2-[1-(4-fluorophenyl)ethoxyimino]ethyl]-2-(trifluoromethyl)benzamide]	–	≥ 50%
CCC(C)ON=C(CNC(=O)c1ccccc1C(F)(F)F)c1ncc(Cl)cc1Cl (centres unmarked) [Compound No. 2-009, N-[2-(3,5-dichloropyridin-2-yl)-2-(sec-butoxyimino)ethyl]-2-(trifluoromethyl)benzamide]	–	≥ 50%
CC(C)O/N=C(\CNC(=O)c1ccccc1C(F)(F)F)c1ncc(Cl)cc1Cl [Compound No. 2-239, (E)-N-[2-(3,5-dichloropyridin-2-yl)-2-(isopropoxyimino)ethyl]-2-(trifluoromethyl)benzamide]	54 to 57 °C	–

Continued, in another order:

melting point	Compound	pest or weed control at 100 µg/mL [1]
75 to 77 °C	CON=C(CN(C(=O)c1ccccc1C(F)(F)F)C1CC1)c1ncc(Cl)cc1Cl [4-007]	–
107 to 108 °C	CC(C)O/N=C(/CNC(=O)c1ccccc1C(F)(F)F)c1ncc(Cl)cc1Cl [Compound No. 2-128, (Z)—N-[2-(3,5-dichloropyridin-2-yl)-2-(isopropoxyimino)ethyl]-2-(trifluoromethyl)benzamide]	≥ 50%
100 to 102 °C	O=C(NC/C(=N/OCC(F)(F)F)c1ncc(Cl)cc1Cl)c1ccccc1C(F)(F)F [2-212, (Z)—N-[2-(3,5-dichloropyridin-2-yl)-2-(2,2,2-trifluoroethoxyimino)ethyl]-2-(trifluoromethyl)benzamide]	≥ 50%
98 to 101 °C	O=C(NC/C(=N\OCC1CC1)c1ncc(C(F)(F)F)cc1Cl)c1ccccc1C(F)(F)F [Compound No. 2-023, (E)-N-[2-[3-chloro-5-(trifluoromethyl)pyridin-2-yl]-2-(cyclopropylmethoxyimino)ethyl]-2-(trifluoromethyl)benzamide]	–
81 to 83 °C	CC(C)O/N=C(\CNC(=O)c1ccccc1C(F)(F)F)c1ncc(C(F)(F)F)cc1Cl [Compound No. 2-019, (E)-N-[2-[3-chloro-5-(trifluoromethyl)pyridin-2-yl]-2-(isopropoxyimino)ethyl]-2-(trifluoromethyl)benzamide]	–
73 to 74 °C	O=C(NC/C(=N/OCC1CC1)c1ncc(C(F)(F)F)cc1Cl)c1ccccc1C(F)(F)F [Compound No. 2-024, (Z)—N-[2-[3-chloro-5-(trifluoromethyl)pyridin-2-yl]-2-(cyclopropylmethoxyimino)ethyl]-2-(trifluoromethyl)benzamide]	≥ 50%
